Consider two compounds from ChEMBL document CHEMBL1143229, “PB183, a sigma receptor ligand, as a potential PET probe for the imaging of prostate adenocarcinoma” (Bioorg Med Chem Lett, 2008).

Data set [1] is described as follows: Apparent permeability from apical to basolateral side of human Caco-2 cell membrane at pH 7.4 after 21 days. Type of data set: ADME, cell-based. Particulars: Caco-2, pH 7.4. On the technique in general: Caco-2 cells form a polarised layer with tight junctions and transporters.
Data set [2] addresses Sigma non-opioid intracellular receptor 1 (Mus musculus, UniProt O55242). Nature of the data set: Displacement of (+)-[3H]pentazocine from mouse sigma 1 receptor in TRAMP cell membrane. It is filed as cell membranes.
A short description of data set [3]: Displacement of [3H]DTG from mouse sigma-2 receptor in TRAMP cell membrane. Type of data set: cell membranes. Background: Displacement assays read how much labelled ligand stays bound in the presence of the test substance.
Data set [4] in a line: Cytotoxicity against mouse TRAMP cells. Type of data set: functional, cell-based.
Data set [5] in a line: Antiproliferative activity against mouse TRAMP cells. It is filed as functional, cell-based.
Data set [6] can be described thus: Selectivity for sigma 2 receptor over sigma 1 receptor.

Sequence of Sigma non-opioid intracellular receptor 1 (O55242 whole entry): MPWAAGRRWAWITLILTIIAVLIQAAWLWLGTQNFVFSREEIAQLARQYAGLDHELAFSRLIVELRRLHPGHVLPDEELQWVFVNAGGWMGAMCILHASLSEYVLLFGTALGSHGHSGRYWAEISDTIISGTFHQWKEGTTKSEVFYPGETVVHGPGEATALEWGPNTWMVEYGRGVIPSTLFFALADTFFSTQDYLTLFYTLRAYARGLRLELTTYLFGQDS

For `COc1cccc2c(CCCN3CCN(C4CCCCC4)CC3)cccc12`, in data set [1], the Papp A→B amounted to 6.3 ×10⁻⁶ cm/s. The values for the Ki in data set [2] and in data set [3] were 0.0065 µM and 0.0005 µM, respectively. The figures for the concentration for a half-maximal effect (EC50) in data set [4] and in data set [5] were 26.6 µM and 16.9 µM, respectively.
For `COc1cccc2c1CCCC2CCCN1CCN(C2CCCCC2)CC1` (stereo unspecified), in data set [6], the Selectivity ratio came to 40.

The term Papp A→B denotes the apparent permeability from the apical to the basolateral side of a cell layer. In general, Ki refers to the equilibrium dissociation constant of an inhibitor or competing ligand from its target. Read a low Ki as higher affinity. One may read the EC50 as the concentration that produces a half-maximal response. Read a high EC50 as a need for much substance.
